Legend:
Vasopressin V2 receptor = Vasopressin V2 receptor (Homo sapiens, UniProt P30518)
[1] = target: Voltage-dependent L-type calcium channel subunit alpha-1C (Rattus norvegicus, UniProt P22002); type: functional
Cannabinoid receptor 1 = Cannabinoid receptor 1 (Homo sapiens, UniProt P21554)
[2] = target: Gamma-aminobutyric acid receptor subunit alpha-1 (Rattus norvegicus, UniProt P62813)
[3] = target: Glutamate receptor ionotropic, NMDA 1 (Rattus norvegicus, UniProt P35439)
[4] = target: 5-hydroxytryptamine receptor 2B (Homo sapiens, UniProt P41595); type: functional, cell-based
[5] = target: T1, Alpha-1A adrenergic receptor (Homo sapiens, UniProt P35348); type: functional, cell-based
T1 sequence (P35348 whole entry): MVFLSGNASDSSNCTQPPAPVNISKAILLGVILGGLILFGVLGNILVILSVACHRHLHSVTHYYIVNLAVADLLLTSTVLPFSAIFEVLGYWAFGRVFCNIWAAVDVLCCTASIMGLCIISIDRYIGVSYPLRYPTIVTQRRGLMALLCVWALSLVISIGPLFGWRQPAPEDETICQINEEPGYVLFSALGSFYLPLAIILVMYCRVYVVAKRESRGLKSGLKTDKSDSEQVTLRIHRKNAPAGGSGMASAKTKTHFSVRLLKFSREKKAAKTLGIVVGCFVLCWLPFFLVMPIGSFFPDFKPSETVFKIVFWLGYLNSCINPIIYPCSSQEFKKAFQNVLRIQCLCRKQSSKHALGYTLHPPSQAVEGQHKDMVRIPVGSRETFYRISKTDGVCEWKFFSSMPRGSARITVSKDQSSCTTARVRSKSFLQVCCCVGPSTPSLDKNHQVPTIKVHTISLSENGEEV

[6] = target: T2, Alpha-2A adrenergic receptor (Homo sapiens, UniProt P08913)
T2 sequence (P08913 whole entry): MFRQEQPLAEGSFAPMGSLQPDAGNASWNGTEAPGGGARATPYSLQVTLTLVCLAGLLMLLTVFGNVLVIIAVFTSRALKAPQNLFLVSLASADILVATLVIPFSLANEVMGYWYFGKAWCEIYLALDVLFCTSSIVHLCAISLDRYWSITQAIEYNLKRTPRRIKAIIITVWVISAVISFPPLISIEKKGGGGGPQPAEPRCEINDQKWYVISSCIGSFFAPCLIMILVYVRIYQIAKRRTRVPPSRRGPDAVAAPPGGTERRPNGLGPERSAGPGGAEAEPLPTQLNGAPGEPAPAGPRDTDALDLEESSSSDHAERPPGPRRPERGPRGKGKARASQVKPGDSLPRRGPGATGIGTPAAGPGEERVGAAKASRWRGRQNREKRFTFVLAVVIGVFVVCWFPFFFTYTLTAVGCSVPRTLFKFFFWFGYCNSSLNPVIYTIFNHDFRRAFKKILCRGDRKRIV

Histamine H3 receptor = Histamine H3 receptor (Homo sapiens, UniProt Q9Y5N1)
[7] = target: T3, Amine oxidase [flavin-containing] A (Homo sapiens, UniProt P21397); type: functional
T3 sequence (P21397 whole entry): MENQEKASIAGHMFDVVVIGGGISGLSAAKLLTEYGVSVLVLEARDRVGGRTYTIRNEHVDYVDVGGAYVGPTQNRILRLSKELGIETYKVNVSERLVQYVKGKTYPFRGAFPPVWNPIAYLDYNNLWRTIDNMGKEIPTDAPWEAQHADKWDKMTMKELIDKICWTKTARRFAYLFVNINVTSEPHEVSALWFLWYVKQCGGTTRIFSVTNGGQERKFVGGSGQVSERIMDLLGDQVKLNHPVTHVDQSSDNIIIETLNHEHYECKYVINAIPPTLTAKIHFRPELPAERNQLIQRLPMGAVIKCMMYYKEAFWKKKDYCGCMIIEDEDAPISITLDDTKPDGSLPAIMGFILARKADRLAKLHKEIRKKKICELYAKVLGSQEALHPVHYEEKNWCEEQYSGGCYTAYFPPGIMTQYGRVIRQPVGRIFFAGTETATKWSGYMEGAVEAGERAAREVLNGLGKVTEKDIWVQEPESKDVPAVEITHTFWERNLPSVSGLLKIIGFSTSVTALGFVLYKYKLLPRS

[8] = target: 3',5'-cyclic-AMP phosphodiesterase 4A (Homo sapiens, UniProt P27815); type: functional
[9] = target: Sodium-dependent noradrenaline transporter (Homo sapiens, UniProt P23975)
Progesterone receptor = target: T4, Progesterone receptor (Homo sapiens, UniProt P06401); type: functional
T4 sequence (P06401 whole entry): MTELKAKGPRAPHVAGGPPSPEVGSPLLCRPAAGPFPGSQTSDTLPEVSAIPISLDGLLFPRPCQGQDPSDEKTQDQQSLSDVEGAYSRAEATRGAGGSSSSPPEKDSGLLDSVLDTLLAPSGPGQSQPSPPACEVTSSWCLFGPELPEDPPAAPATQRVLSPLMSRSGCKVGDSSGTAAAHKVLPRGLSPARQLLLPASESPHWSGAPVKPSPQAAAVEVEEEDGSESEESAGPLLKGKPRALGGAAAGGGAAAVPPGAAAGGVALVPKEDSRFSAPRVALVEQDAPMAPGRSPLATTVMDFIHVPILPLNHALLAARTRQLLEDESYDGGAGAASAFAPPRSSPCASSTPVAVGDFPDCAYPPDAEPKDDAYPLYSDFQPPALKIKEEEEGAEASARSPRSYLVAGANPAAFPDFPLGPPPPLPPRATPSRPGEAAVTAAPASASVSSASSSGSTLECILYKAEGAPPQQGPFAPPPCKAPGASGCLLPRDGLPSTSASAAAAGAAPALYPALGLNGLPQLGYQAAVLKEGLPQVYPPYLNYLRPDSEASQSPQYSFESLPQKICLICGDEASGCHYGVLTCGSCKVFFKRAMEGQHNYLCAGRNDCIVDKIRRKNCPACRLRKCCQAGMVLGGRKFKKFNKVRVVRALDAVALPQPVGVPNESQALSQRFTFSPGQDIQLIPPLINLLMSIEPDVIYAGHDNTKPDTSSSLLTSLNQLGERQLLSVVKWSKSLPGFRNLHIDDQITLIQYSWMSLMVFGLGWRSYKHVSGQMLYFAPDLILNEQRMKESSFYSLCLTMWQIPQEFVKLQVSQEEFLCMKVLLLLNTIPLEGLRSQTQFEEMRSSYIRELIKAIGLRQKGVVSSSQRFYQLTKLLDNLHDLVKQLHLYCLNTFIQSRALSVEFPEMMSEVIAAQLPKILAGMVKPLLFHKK

Histamine H1 receptor = Histamine H1 receptor (Homo sapiens, UniProt P35367)

Measured: AC50
Also: assay procedure not described here.

Chain of Voltage-dependent L-type calcium channel subunit alpha-1C (P22002 whole entry): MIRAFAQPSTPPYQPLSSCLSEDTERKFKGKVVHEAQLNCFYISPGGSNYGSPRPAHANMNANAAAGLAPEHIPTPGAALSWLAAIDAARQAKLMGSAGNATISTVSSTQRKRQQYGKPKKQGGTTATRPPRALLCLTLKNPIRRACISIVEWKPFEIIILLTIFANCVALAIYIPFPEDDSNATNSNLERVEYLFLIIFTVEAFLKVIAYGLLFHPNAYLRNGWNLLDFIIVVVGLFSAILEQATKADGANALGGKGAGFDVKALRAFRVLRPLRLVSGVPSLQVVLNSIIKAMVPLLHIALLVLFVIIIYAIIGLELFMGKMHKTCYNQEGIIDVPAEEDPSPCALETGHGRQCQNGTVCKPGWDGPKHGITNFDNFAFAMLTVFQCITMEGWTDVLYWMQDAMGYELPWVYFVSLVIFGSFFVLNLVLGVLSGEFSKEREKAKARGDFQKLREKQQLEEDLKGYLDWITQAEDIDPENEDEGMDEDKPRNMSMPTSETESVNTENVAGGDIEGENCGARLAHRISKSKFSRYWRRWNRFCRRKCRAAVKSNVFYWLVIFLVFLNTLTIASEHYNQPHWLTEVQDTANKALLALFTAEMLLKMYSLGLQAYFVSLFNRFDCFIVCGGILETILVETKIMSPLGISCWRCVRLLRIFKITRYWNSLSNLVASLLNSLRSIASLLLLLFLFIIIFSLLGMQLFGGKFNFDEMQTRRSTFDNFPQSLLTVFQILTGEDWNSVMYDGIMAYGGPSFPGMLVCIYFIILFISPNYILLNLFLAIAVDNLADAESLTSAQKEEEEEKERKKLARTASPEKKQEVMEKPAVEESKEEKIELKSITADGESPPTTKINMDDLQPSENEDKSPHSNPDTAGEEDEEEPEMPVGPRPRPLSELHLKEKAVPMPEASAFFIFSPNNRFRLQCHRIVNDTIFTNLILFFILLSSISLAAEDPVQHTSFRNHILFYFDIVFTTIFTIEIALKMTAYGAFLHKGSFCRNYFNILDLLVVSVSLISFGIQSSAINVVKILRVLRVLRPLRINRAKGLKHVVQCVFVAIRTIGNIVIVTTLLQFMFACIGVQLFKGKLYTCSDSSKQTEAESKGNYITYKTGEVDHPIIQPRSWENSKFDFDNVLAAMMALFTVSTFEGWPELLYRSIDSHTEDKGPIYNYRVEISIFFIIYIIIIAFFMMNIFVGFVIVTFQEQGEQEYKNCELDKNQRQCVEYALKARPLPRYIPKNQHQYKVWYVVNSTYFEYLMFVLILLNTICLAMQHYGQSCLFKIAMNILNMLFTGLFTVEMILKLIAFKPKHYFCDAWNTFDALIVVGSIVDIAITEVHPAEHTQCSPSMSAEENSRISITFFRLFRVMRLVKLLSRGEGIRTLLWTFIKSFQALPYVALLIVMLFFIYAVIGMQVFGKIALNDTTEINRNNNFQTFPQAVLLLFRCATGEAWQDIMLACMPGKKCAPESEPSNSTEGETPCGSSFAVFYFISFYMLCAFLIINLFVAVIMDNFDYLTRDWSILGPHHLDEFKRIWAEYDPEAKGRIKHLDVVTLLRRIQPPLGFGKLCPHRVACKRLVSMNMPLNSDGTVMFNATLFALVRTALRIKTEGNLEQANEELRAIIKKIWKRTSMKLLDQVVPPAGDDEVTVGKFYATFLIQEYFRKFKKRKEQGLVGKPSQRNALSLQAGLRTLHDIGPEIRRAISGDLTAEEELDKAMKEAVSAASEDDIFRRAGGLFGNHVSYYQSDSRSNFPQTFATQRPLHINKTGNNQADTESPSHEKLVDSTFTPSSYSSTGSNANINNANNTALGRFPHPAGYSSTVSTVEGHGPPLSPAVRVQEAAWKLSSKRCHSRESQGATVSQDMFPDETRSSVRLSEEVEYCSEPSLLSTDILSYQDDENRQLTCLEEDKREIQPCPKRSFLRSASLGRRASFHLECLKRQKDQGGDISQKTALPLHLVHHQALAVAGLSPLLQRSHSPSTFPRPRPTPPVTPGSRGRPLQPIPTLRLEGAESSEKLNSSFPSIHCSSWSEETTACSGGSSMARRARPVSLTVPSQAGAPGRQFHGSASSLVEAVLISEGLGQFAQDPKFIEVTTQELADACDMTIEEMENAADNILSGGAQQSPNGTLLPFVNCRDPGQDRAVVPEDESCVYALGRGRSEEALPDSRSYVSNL
Chain of Cannabinoid receptor 1 (P21554 whole entry): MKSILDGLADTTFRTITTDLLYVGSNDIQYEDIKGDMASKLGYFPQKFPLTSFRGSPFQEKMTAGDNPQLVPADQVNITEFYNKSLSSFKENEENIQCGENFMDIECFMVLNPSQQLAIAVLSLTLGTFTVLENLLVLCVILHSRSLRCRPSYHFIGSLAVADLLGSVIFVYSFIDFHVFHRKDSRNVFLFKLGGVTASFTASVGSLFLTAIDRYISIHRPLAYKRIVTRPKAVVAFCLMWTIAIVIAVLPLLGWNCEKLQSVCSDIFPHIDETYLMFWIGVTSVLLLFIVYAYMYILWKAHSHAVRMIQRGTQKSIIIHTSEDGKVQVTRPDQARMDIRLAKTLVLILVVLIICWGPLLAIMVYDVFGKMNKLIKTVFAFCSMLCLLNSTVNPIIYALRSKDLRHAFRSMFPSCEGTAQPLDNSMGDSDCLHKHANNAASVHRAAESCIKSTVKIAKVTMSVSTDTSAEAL
Chain of Gamma-aminobutyric acid receptor subunit alpha-1 (P62813 whole entry): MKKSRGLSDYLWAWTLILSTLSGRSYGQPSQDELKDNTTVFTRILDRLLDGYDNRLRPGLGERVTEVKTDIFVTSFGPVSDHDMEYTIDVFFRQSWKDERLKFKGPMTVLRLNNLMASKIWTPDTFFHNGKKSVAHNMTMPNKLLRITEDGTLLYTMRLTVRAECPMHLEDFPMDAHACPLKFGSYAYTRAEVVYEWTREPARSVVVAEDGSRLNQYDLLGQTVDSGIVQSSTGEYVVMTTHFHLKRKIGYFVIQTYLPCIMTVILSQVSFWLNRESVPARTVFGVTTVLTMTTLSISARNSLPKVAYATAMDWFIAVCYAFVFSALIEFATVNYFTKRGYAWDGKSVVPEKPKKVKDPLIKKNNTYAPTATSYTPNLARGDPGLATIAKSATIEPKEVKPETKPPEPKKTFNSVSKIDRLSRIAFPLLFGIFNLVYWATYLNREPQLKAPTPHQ
Chain of 5-hydroxytryptamine receptor 2B (P41595 whole entry): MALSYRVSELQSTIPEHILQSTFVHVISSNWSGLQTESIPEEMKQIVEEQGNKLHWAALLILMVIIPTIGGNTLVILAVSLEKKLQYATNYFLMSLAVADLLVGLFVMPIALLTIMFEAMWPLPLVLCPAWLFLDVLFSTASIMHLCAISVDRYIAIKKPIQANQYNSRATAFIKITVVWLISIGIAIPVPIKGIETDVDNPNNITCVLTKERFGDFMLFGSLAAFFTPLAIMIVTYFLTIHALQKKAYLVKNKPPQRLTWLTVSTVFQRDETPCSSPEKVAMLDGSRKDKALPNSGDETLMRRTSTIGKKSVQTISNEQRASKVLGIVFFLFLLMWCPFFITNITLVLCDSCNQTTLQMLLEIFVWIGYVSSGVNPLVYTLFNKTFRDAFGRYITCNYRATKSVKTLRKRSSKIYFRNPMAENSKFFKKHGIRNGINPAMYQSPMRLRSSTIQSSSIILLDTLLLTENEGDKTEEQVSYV
Chain of Vasopressin V2 receptor (P30518 whole entry): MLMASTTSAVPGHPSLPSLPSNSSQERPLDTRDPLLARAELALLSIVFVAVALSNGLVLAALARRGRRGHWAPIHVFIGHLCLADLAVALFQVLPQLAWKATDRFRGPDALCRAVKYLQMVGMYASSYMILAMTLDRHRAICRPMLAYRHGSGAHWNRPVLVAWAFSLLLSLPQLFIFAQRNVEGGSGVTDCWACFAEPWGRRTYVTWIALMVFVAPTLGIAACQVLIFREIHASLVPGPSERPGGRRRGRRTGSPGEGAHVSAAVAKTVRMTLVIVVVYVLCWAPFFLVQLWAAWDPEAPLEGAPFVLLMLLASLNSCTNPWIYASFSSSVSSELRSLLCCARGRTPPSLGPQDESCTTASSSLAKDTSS
Chain of 3',5'-cyclic-AMP phosphodiesterase 4A (P27815 whole entry): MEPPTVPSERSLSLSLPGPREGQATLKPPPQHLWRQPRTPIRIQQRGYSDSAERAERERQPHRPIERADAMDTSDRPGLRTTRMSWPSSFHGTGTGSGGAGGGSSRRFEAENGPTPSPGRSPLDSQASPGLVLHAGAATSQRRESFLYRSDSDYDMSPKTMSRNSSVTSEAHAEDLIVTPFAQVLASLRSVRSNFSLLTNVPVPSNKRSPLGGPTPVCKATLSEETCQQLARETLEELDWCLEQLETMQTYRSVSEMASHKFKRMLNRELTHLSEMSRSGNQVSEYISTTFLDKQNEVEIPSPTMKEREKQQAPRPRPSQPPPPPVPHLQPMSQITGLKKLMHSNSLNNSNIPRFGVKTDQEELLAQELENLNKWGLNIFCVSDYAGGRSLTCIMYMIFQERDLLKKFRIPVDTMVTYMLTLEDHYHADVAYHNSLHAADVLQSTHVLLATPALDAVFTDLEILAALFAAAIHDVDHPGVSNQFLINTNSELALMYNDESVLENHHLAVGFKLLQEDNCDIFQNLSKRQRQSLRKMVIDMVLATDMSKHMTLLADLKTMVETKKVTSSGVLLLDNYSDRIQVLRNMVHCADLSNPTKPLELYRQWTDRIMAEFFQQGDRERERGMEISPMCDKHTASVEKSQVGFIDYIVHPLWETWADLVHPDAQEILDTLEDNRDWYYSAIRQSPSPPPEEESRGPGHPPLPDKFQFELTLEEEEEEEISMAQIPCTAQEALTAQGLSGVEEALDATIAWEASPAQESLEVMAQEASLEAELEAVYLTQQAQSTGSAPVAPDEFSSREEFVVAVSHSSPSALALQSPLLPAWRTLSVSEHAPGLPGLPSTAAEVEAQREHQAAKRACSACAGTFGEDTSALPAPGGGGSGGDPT

CCOC(=O)[C@H](CCc1ccccc1)N[C@@H](C)C(=O)N1[C@H](C(=O)O)C[C@@H]2CCC[C@@H]21
> 10 µM: [1] | Cannabinoid receptor 1 | [2] | [3] | [4]
> 30 µM: Vasopressin V2 receptor | [5]

CC[C@H]1OC(=O)[C@H](C)[C@@H](O[C@H]2C[C@@](C)(OC)[C@@H](O)[C@H](C)O2)[C@H](C)[C@@H](O[C@@H]2O[C@H](C)C[C@H](N(C)C)[C@H]2O)[C@](C)(O)C[C@@H](C)CN(C)[C@H](C)[C@@H](O)[C@]1(C)O [AZITHROMYCIN]
> 10 µM: [1] | Cannabinoid receptor 1 | [3] | [4]
not listed: Progesterone receptor | Histamine H1 receptor
> 30 µM: all other assays above

CC(C)C[C@H]1C(=O)N2CCC[C@H]2[C@]2(O)O[C@](NC(=O)[C@@H]3C=C4c5cccc6[nH]c(Br)c(c56)C[C@H]4N(C)C3)(C(C)C)C(=O)N12 [BROMOCRIPTINE]
0.538 µM: [4]
> 10 µM: [1] | Cannabinoid receptor 1 | [2] | [3]
not listed: [5] | [6] | Histamine H1 receptor
> 30 µM: all other assays above

CC1=C(C(=O)O)N2C(=O)[C@@H](NC(=O)[C@H](N)c3ccccc3)[C@H]2SC1 [CEPHALEXIN ANHYDROUS]
> 10 µM: [1] | Cannabinoid receptor 1 | [2] | [3]
> 30 µM: Vasopressin V2 receptor | [5]

CN1C(=O)CCS(=O)(=O)C1c1ccc(Cl)cc1 (configuration not stated) [CHLORMEZANONE]
> 10 µM: Vasopressin V2 receptor | [1] | Cannabinoid receptor 1 | [2] | [3] | [4] | Progesterone receptor
> 30 µM: Histamine H1 receptor

CN(C)CCC(c1ccc(Cl)cc1)c1ccccn1 (configuration not stated) [CHLORPHENIRAMINE]
> 10 µM: [1] | Cannabinoid receptor 1 | [2] | [3] | [4]
> 30 µM: Vasopressin V2 receptor | [5]

CN(C)/N=N/c1[nH]cnc1C(N)=O [DACARBAZINE]
> 10 µM: Vasopressin V2 receptor | [1] | Cannabinoid receptor 1 | [2] | [3] | [4] | Progesterone receptor

C[C@]12CCC(=O)C=C1CC[C@@H]1[C@@H]2[C@@H](O)C[C@@]2(C)[C@H]1CC[C@]2(O)C(=O)CO [HYDROCORTISONE]
> 10 µM: [1] | Cannabinoid receptor 1 | [2] | [3] | [4]
> 30 µM: Vasopressin V2 receptor | [5]

O=P1(NCCCl)OCCCN1CCCl (configuration not stated) [IFOSFAMIDE]
> 30 µM: Vasopressin V2 receptor | [1] | Cannabinoid receptor 1 | [2] | [3] | [4] | Progesterone receptor
